# Results as given in ChEMBL document CHEMBL1201862, “PubChem BioAssay data set” (2004).
# The source made the active and inactive calls.
# Columns and labels:
# Albumin = Albumin (Bos taurus, UniProt P02769); test: Counterscreen for inhibitors of T-cell receptor (TCR)-CD3 interaction: Fluorescence-based biochemical high throughput dose response assay to identify inhibitors of T-cell receptor (TCR)-CD3 interaction using a TAMRA-labeled BSA probe.; format: functional
# cells [1] = format: functional, cell-based
# [2] = biological target: T1, Trace amine-associated receptor 1 (Homo sapiens, UniProt Q96RJ0); test: Fluorescence-based cell-based high throughput dose response assay to identify agonists of the human trace amine associated receptor 1 (TAAR1).; format: functional
# [3] = biological target: T1, Trace amine-associated receptor 1; test: Counterscreen for agonists of the human trace amine associated receptor 1 (hTAAR1): Fluorescence-based cell-based high throughput dose response assay to identify hTAAR1 agonist that also desensitize TAAR1 receptor response.; format: functional
# cells [4] = format: functional, cell-based; remark: listed apart in the source
# [5] = A375 melanoma cell viability loss, dose response, counter-screen for MITF inhibitor project, CellTiter-Glo luminescence, dry powder, set 4 (AID 624364); format: functional, cell-based; details: A-375;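 further: A375 melanoma cells are MITF independent so this is a counter screen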
# [6] = A375 melanoma cell cytotoxicity, dose response, counter-screen for MITF inhibitor project, CellTiter-Glo luminescence, dry powder, set 2 (AID 624489); format: functional, cell-based; details: A-375;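 further: actives are compounds lowering A375 viability meaning general cytotoxicity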
# [7] = ADAM10 inhibitors, peptide cleavage, dose response, biochemical, QFRET (AID 743254);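 further: ADAM10 enzyme with the DM2 quenched FRET peptide as substrate; EDANS fluorescence gain as the protease cuts the substrate; inhibitor potency against ADAM10 proteolytic activity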
# [8] = biological target: Disintegrin and metalloproteinase domain-containing protein 17 (Homo sapiens, UniProt P78536); test: ADAM17 protease inhibitors, dose response, counter-screen for ADAM10 exosite inhibitor project, biochemical, quenched FRET substrate (AID 743253)
# Vero = test: Vero cell toxicity, dose response, cytotoxicity control, plate reader, cherry-pick samples (AID 687020); format: functional, cell-based; details: Chlorocebus sabaeus
# BHK-21 = test: BHK-21 cell toxicity, dose response, cytotoxicity control, plate reader, cherry-pick samples (AID 687030); format: functional, cell-based; details: Mesocricetus auratus
# A549 = test: A549 cell toxicity, dose response, cytotoxicity control, plate reader, cherry-pick samples (AID 687028); format: functional, cell-based; details: Homo sapiens
# [9] = HEK293T cell cytotoxicity, dose response, cytotoxicity control, luminescence plate reader, powder samples, set 4 (AID 651863); format: functional, cell-based; details: HEK293
# [10] = biological target: Protein disulfide-isomerase A6 (Homo sapiens, UniProt Q15084); test: Secondary Assay for Selectivity of PDI Inhibitors (against ERp5) Measured in Biochemical System Using Plate Reader - 2137-04_Inhibitor_Dose_DryPowder_Activity_Set3.
# [11] = HeLa cell cytotoxicity, dose response, cytotoxicity control, ATP luminescence, dry powder (AID 652117); format: functional, cell-based
# [12] = biological target: Protein disulfide-isomerase (Homo sapiens, UniProt P07237); test: PDI inhibitors, insulin turbidity readout, confirmation, biochemical, dry powder samples, set 2 (AID 652146)
# [13] = biological target: Metabotropic glutamate receptor 3 (Rattus norvegicus, UniProt P31422); test: mGlu3 negative allosteric modulator potency, dose response, HEK/GIRK cells, thallium flux, rat (AID 651839); format: functional
# [14] = inhibitors of non-replicating M. tuberculosis, dose response, luciferase, dry powder (AID 651619); format: functional; details: Mycobacterium tuberculosis
# [15] = inhibitors of non-replicating M. tuberculosis, dose response, luciferase, dry powder (AID 651620); format: functional; details: Mycobacterium tuberculosis
# [16] = growth inhibition of replicating M. tuberculosis, dose response, counter-screen, dry powder, IC90 (AID 651617); format: functional; details: Mycobacterium tuberculosis
# [17] = HeLa cell cytotoxicity, dose response, cytotoxicity control, 24 h, plate reader, powder samples, set 3 (AID 651864); format: functional, cell-based
# [18] = A549 cell cytotoxicity, dose response, cytotoxicity control, cherry-picks, 26 µM top dose (AID 1053119); format: functional, cell-based
# [19] = biological target: Delta-type opioid receptor (Homo sapiens, UniProt P41143); test: Late-stage results from the probe development effort to identify antagonists of OPRK1: fluorescence-based cell-based dose response OPRD1 counterscreen.; format: functional
# Mu-type opioid receptor = Mu-type opioid receptor (Homo sapiens, UniProt P35372); test: Late-stage results from the probe development effort to identify antagonists of OPRK1: luminescence-based cell-based dose response OPRM1 counterscreen.; format: functional
# [20] = HepG2 cell cytotoxicity, dose response, cytotoxicity control, ATP luminescence, cherry-pick, set 6 (AID 1053125); format: functional, cell-based
# cells [21] = details: HEK293
# T1 sequence (Q96RJ0 whole entry): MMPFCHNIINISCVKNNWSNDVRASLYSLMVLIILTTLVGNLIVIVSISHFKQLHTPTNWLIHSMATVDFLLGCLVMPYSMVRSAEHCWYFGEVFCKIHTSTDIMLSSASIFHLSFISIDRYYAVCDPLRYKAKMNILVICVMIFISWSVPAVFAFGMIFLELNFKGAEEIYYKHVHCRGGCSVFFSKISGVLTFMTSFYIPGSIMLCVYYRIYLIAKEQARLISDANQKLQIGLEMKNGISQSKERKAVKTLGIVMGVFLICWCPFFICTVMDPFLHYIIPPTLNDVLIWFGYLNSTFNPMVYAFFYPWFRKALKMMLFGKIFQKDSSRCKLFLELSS
# Chain of Albumin (P02769 whole entry): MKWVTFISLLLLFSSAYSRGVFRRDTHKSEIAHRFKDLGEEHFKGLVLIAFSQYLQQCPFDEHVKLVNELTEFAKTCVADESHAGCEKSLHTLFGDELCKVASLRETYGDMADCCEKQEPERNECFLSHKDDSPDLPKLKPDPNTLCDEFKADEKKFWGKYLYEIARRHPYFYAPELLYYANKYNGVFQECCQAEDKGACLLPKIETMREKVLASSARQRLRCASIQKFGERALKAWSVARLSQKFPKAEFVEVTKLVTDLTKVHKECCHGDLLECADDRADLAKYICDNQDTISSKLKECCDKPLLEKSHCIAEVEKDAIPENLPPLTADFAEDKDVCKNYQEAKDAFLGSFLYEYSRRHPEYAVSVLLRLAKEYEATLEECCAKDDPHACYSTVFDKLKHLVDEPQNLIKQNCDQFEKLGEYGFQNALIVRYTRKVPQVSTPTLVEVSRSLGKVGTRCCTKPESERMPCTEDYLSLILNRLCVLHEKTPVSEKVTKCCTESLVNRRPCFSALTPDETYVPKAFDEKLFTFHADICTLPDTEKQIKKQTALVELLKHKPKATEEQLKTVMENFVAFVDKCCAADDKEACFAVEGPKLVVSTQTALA
# Chain of Disintegrin and metalloproteinase domain-containing protein 17 (P78536 whole entry, the tested form may be a part): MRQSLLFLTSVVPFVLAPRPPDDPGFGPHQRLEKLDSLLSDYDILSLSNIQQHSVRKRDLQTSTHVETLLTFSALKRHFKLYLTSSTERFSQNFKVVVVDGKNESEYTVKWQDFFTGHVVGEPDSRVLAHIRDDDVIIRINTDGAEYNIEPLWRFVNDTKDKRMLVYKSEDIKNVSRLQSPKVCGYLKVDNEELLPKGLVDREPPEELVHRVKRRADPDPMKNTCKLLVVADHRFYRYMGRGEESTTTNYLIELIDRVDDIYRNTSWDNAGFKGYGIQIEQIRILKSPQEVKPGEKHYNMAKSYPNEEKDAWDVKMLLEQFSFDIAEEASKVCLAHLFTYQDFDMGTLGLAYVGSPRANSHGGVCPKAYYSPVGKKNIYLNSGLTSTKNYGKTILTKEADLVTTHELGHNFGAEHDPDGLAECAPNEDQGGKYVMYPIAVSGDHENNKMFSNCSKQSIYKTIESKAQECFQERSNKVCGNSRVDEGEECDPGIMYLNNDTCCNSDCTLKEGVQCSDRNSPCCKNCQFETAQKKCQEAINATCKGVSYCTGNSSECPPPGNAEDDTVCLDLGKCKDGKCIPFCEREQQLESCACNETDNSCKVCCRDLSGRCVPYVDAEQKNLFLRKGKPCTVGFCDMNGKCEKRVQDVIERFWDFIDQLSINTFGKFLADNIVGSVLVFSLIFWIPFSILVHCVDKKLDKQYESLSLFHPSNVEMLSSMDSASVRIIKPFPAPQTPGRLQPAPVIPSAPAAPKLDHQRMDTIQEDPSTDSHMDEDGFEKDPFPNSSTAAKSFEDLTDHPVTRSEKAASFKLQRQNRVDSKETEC
# Chain of Delta-type opioid receptor (P41143 whole entry): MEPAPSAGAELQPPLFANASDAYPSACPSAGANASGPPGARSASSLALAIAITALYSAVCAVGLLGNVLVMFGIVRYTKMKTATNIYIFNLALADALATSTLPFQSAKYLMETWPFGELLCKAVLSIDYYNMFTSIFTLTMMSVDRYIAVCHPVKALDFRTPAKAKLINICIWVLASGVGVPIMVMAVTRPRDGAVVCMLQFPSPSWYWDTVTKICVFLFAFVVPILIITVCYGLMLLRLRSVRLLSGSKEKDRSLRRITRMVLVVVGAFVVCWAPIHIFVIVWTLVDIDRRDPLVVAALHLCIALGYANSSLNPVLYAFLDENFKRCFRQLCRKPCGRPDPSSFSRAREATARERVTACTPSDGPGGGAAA
# Chain of Mu-type opioid receptor (P35372 whole entry): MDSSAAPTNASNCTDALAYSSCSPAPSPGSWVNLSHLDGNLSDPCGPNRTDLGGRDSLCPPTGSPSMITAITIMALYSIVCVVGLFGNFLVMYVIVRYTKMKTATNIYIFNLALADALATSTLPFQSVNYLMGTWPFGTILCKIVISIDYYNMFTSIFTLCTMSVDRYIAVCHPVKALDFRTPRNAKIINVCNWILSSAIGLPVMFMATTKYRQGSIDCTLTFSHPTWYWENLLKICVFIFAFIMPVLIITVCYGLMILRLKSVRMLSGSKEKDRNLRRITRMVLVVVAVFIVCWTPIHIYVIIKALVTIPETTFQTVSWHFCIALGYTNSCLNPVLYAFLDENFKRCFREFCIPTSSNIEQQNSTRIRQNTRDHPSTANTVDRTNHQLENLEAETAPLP
# Chain of Protein disulfide-isomerase (P07237 whole entry): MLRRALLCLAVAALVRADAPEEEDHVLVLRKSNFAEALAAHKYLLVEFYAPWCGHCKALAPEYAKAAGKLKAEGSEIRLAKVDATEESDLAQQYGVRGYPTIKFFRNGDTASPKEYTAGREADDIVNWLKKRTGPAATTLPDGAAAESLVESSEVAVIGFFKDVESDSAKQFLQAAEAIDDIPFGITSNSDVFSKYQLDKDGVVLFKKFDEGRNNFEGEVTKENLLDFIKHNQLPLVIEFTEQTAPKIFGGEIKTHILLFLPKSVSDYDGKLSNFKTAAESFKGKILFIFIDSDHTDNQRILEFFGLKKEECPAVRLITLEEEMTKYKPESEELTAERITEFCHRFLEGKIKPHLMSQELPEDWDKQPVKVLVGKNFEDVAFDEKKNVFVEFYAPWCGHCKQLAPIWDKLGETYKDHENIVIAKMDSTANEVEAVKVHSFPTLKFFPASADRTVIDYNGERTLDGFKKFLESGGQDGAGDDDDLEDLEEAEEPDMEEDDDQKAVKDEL
# Chain of Metabotropic glutamate receptor 3 (P31422 whole entry): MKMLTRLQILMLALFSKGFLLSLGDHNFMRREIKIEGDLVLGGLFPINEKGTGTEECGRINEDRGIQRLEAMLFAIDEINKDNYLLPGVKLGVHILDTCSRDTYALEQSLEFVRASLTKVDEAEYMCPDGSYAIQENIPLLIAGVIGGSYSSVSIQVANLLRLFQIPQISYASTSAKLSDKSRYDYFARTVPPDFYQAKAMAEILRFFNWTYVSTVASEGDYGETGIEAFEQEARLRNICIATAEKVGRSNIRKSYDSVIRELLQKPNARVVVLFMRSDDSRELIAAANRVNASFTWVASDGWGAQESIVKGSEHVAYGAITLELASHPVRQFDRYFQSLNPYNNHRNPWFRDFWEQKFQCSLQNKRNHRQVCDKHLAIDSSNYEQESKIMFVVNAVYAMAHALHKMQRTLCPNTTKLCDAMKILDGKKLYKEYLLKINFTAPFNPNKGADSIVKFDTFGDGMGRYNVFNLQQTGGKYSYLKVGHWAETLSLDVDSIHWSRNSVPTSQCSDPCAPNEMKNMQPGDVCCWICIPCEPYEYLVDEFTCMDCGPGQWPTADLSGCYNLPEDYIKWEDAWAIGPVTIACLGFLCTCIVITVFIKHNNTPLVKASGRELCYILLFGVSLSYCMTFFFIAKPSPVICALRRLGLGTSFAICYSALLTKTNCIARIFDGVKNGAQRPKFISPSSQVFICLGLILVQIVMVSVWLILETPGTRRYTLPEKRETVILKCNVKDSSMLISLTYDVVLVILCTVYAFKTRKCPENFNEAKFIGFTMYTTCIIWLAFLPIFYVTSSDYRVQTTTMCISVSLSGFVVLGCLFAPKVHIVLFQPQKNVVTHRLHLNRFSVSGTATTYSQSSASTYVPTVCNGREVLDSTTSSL
# Chain of Protein disulfide-isomerase A6 (Q15084 whole entry): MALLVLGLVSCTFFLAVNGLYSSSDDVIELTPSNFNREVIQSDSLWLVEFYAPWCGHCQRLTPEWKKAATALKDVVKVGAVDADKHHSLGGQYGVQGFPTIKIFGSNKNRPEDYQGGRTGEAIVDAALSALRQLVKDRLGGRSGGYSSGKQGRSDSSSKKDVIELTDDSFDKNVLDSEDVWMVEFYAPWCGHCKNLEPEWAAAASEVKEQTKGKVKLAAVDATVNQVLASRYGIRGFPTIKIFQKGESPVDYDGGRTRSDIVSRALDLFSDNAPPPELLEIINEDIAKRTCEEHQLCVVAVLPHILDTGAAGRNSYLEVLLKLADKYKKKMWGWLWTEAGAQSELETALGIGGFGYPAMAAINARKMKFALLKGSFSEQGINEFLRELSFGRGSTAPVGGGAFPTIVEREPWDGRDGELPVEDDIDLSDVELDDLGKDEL
smiles,measurement,setting,value
CN=C(S)NNC(=O)c1cccn(Cc2cccc(C(F)(F)F)c2)c1=O,IC50,Albumin,> 94.1 µM (inactive)
O=C(CSC1=Nc2ccc(F)cc2S(=O)(=O)N1)NCCc1ccccc1,IC50,cells [1],> 29.9 µM (inactive)
same,EC50,[2],0.621 µM (active)
same,IC50,[3],3.52 µM (active)
same,EC50,cells [4],> 29.9 µM (inactive)
O=C1C(NS(=O)(=O)c2ccc(Br)cc2)=C(c2ccc(OC(F)(F)F)cc2)C(=O)c2ccccc21,AC50,[5],> 70 µM (inactive)
same,AC50,[6],> 70 µM (inactive)
O=C1NCN(c2ccccc2)C12CCN(C(c1cccc3ccccc13)c1nnnn1Cc1ccccc1)CC2 (stereo unspecified),IC50,[7],> 69.5 µM (inactive)
same,IC50,[8],> 69.5 µM (inactive)
CCCCN(C(C)=O)c1ccc2c(c1)C1CC2CCN1Cc1ccccc1 (stereo unspecified),AC50,Vero,30.5 µM (active)
same,AC50,BHK-21,33.7 µM (active)
same,AC50,A549,30.3 µM (active)
O=C(O)C1CCCCC1C(=O)N1CCc2ccccc2C1CN1C(=O)[C@H]2CCCC[C@H]2C1=O (stereo partly specified),AC50,[9],> 52 µM (inactive)
CC(C)(C)OC(=O)C1(CCOc2ccccc2)CCN(Cc2ccc(O)c(Cl)c2)CC1,AC50,[10],30 µM (inactive)
same,AC50,[11],34 µM (active)
same,AC50,[12],0.6 µM (active)
COc1ccc(C#Cc2ccc(C(=O)N3CC[C@@H](O)C3)cc2)cc1,IC50,[13],6.34 µM (active)
c1ccc(-c2nnc(SCc3ccccn3)o2)cc1,IC90,[14],4 µM (active)
same,IC90,[15],4 µM (active)
same,IC90,[16],16 µM (active)
O=C(Cc1ccc(-c2ccccc2)cc1)NC1CCCCC1,AC50,[17],109 µM (active)
O=C(CN1CCCC1)Nc1ccc(Oc2ccc(NC(=O)CN3CCCC3)cc2)cc1,AC50,[18],> 52 µM (inactive)
COC(=O)c1cc(Cl)cnc1N1CCC(NC2CCCCC2)CC1,IC50,[19],39 µM (inactive)
same,IC50,Mu-type opioid receptor,2 µM (active)
CC/C(C)=N\Nc1nc(-c2cc3cc(OC)ccc3oc2=O)cs1,AC50,[20],> 52 µM (inactive)
same,AC50,cells [21],> 52 µM (inactive)
